# According to PMC12045974, “T cell toxicity induced by tigecycline binding to the mitochondrial ribosome” (Nature Communications, 2025):
# Values joined by “and” are separate entries in the source; they are usually repeats but may differ in a detail not shown here. Equal values may be shown once. Read-outs that look alike come from different tables or passages of the source.
# Assays:
# Jurkat T cells = assay: Cell viability assay (CCK-8), Jurkat T cells; format: cell-based, human; details: Jurkat, 72 h, Fig. 1A, in % (unit assumed)
# Experimental: (§1) Cells were seeded in 96-well plates ranging from 2000 to 15,000 cells per well depending on different cell lines and treated with antibiotics in serial dilutions for 72 h (120 h for the preliminary assays) in a humidified incubator (37 °C, 5% CO2) in 100 μl medium (DMEM with 10% FBS, 2.05 mM L-glutamine (Sigma) for Hek293 and Hela; RPMI-1640 with 10% FBS, 2.05 mM L-glutamine (Sigma), and 55 μM 2-ME (Gibco) for Jurkat T cells and PBMCs). Based on preliminary tests, the number of cells per well was optimized to 2000 for Hela and Hek293, 6000 for Jurkat T cells, and 15,000 for PBMCs. The stocks of antibiotics were prepared by dissolving in DMSO. As control, the same amount of DMSO was added to the non-treated groups. Serial drug dilutions were prepared in the corresponding medium to provide a total of 9 concentrations up to 300 μM for tetracyclines and up to 900 μM for additional bacterial protein synthesis inhibitors. After drug treatment, 10% CCK-8 (Cell Counting Kit-8, Sigma Aldrich) (10 μl per well) of the total volume was added to the cells and incubated for 1–4 h depending on cell lines (1 h for Hela and Hek293; 3 h for Jurkat T cells; 4 h for PBMCs) before the evaluation of the effect of antibiotics on cell viability. […] Results were visually confirmed under the light microscope. Each treatment was performed in technical repeats. Dose-response curves were plotted, mean ± SEM was shown, and half maximal inhibitory concentration (IC50) values were calculated in GraphPad Prism.
# PBMCs = assay: Cell viability assay (CCK-8), PBMCs; format: cell-based, human; details: PBMCs, 72 h; for cell vialibity normalized to Vehicle (DMSO): in % (unit assumed)
# Experimental: as §1, with “Buffy coats were ordered from anonymous blood donors at […]. […] Cells” for “Cells”, “1-4” for “1–4”
# [1] = Homo sapiens, PBMC, dose 0.411523 μM, Fig. 1B, read-out: cell vialibity normalized to Vehicle (DMSO)
# [2] = Homo sapiens, PBMC, dose 300 μM, Fig. 1B, read-out: cell vialibity normalized to Vehicle (DMSO)
# [3] = Homo sapiens, PBMC, dose 1.23457 μM, Fig. 1B, read-out: cell vialibity normalized to Vehicle (DMSO)
# [4] = Homo sapiens, PBMC, dose 11.1111 μM, Fig. 1B, read-out: cell vialibity normalized to Vehicle (DMSO)
compound,measurement,setting,value
medocycline,cell vialibity normalized to Vehicle (DMSO),Jurkat T cells; dose 0.0457247 μM,102.989 and 99.9557 and 109.669
same,cell vialibity normalized to Vehicle (DMSO),Jurkat T cells; dose 0.137174 μM,102.725 and 107.699 and 114.702
same,cell vialibity normalized to Vehicle (DMSO),Jurkat T cells; dose 0.411523 μM,103.253 and 102.434 and 102.384
same,cell vialibity normalized to Vehicle (DMSO),Jurkat T cells; dose 1.23457 μM,99.4725 and 91.8142 and 98.8083
same,cell vialibity normalized to Vehicle (DMSO),Jurkat T cells; dose 3.7037 μM,86.4176 and 91.8584 and 75.4404
same,cell vialibity normalized to Vehicle (DMSO),Jurkat T cells; dose 11.1111 μM,52.967 and 57.0354 and 39.5078
same,cell vialibity normalized to Vehicle (DMSO),Jurkat T cells; dose 33.3333 μM,13.8022 and 14.0708 and 21.114
same,cell vialibity normalized to Vehicle (DMSO),Jurkat T cells; dose 100 μM,9.495 and 9.425 and 18.7824
same,cell vialibity normalized to Vehicle (DMSO),Jurkat T cells; dose 300 μM,7.165 and 7.743 and 8.238
same,cell vialibity normalized to Vehicle (DMSO),"PBMCs; dose 0.0457247 μM, Fig. 1A",99.3099 and 104.911 and 97.5874 and 111.701 and 85.5908
same,cell vialibity normalized to Vehicle (DMSO),"PBMCs; dose 0.137174 μM, Fig. 1A",96.2044 and 113.924 and 98.007 and 101.337 and 91.5168
same,cell vialibity normalized to Vehicle (DMSO),"PBMCs; dose 0.411523 μM, Fig. 1A",87.4466 and 108.341 and 104.406 and 103.147 and 93.157
same,cell vialibity normalized to Vehicle (DMSO),"PBMCs; dose 1.23457 μM, Fig. 1A",87.9395 and 106.341 and 92.1504 and 97.7385 and 83.3333
same,cell vialibity normalized to Vehicle (DMSO),"PBMCs; dose 3.7037 μM, Fig. 1A",96.5495 and 93.5206 and 91.1364 and 95.1622 and 83.8095
same,cell vialibity normalized to Vehicle (DMSO),"PBMCs; dose 11.1111 μM, Fig. 1A",80.6934 and 86.1279 and 92.0804 and 88.6726 and 85.0088
same,cell vialibity normalized to Vehicle (DMSO),"PBMCs; dose 33.3333 μM, Fig. 1A",52.5961 and 55.9883 and 48.1294 and 49.4985 and 42.8924
same,cell vialibity normalized to Vehicle (DMSO),"PBMCs; dose 100 μM, Fig. 1A",27.933 and 27.6926 and 32.9196 and 27.237 and 25.2205
same,cell vialibity normalized to Vehicle (DMSO),"PBMCs; dose 300 μM, Fig. 1A",19.208 and 32.8451 and 31.9056 and 30.1672 and 23.6508
"C=C[C@]1(C)C[C@@H](OC(=O)CSCCN(CC)CC)[C@]2(C)[C@H](C)CC[C@]3(CCC(=O)[C@H]32)[C@@H](C)[C@@H]1O [Tiamulin, tiamulin]",viability at 0.411523 µM,PBMCs; [1],103%
same,viability at 300 µM,PBMCs; [2],7.89%
same,viability at 900 µM,"PBMCs; Homo sapiens, PBMC, dose 900 μM, Fig. 1B, read-out: cell vialibity normalized to Vehicle (DMSO)",3.99%
oxycycline,cell vialibity normalized to Vehicle (DMSO),Jurkat T cells; dose 0.0457247 μM,95.9551 and 99.8266 and 111.591
same,cell vialibity normalized to Vehicle (DMSO),Jurkat T cells; dose 0.137174 μM,122.921 and 100.043 and 106.21
same,cell vialibity normalized to Vehicle (DMSO),Jurkat T cells; dose 1.23457 μM,104.27 and 99.6099 and 104.508
same,cell vialibity normalized to Vehicle (DMSO),Jurkat T cells; dose 3.7037 μM,87.8652 and 92.4577 and 103.45
same,cell vialibity normalized to Vehicle (DMSO),Jurkat T cells; dose 11.1111 μM,101.124 and 98.0061 and 123.919
same,cell vialibity normalized to Vehicle (DMSO),Jurkat T cells; dose 33.3333 μM,92.809 and 101.734 and 114.305
same,cell vialibity normalized to Vehicle (DMSO),Jurkat T cells; dose 100 μM,28.8764 and 25.2276 and 26.6329
same,cell vialibity normalized to Vehicle (DMSO),Jurkat T cells; dose 300 μM,15.1685 and 10.4898 and 12.0515
same,cell vialibity normalized to Vehicle (DMSO),"PBMCs; dose 0.0457247 μM, Fig. 1A",99.5117 and 100.066 and 89.1698 and 120.008 and 102.707
same,cell vialibity normalized to Vehicle (DMSO),"PBMCs; dose 0.137174 μM, Fig. 1A",101.938 and 102.097 and 92.5408 and 113.339 and 130.667
same,cell vialibity normalized to Vehicle (DMSO),"PBMCs; dose 0.411523 μM, Fig. 1A",93.1002 and 107.019 and 97.4538 and 111.081 and 113.453
same,cell vialibity normalized to Vehicle (DMSO),"PBMCs; dose 1.23457 μM, Fig. 1A",93.4625 and 104.955 and 100.95 and 107.767 and 104.422
same,cell vialibity normalized to Vehicle (DMSO),"PBMCs; dose 3.7037 μM, Fig. 1A",87.0825 and 89.8101 and 98.4579 and 106.835 and 106.22
same,cell vialibity normalized to Vehicle (DMSO),"PBMCs; dose 11.1111 μM, Fig. 1A",86.2319 and 86.9364 and 102.905 and 107.27 and 113.598
same,cell vialibity normalized to Vehicle (DMSO),"PBMCs; dose 33.3333 μM, Fig. 1A",84.2313 and 84.0462 and 91.6801 and 95.3397 and 99.442
"CCC[C@@H]1C[C@@H](C(=O)N[C@@H]([C@H]2O[C@H](SC)[C@H](O)[C@@H](O)[C@H]2O)[C@H](C)Cl)N(C)C1 [Clindamycin, clindamycin]",viability at 0.137174 µM,"PBMCs; Homo sapiens, PBMC, dose 0.137174 μM, Fig. 1B, read-out: cell vialibity normalized to Vehicle (DMSO)",97%
same,viability at 0.411523 µM,PBMCs; [1],95.8%
same,viability at 1.23457 µM,PBMCs; [3],92.3%
same,viability at 11.1111 µM,PBMCs; [4],102%
same,viability at 100 µM,"PBMCs; Homo sapiens, PBMC, dose 100 μM, Fig. 1B, read-out: cell vialibity normalized to Vehicle (DMSO)",94.6%
same,viability at 300 µM,PBMCs; [2],63%
"C=C1c2cccc(O)c2C(=O)C2=C(O)[C@]3(O)C(=O)C(C(N)=O)=C(O)[C@@H](N(C)C)[C@@H]3[C@@H](O)[C@H]12 [Methacycline, methacycline]",cell vialibity normalized to Vehicle (DMSO),Jurkat T cells; dose 0.0457247 μM,104.711 and 102.732 and 106.75
same,cell vialibity normalized to Vehicle (DMSO),Jurkat T cells; dose 0.137174 μM,102.378 and 109.807 and 118.32
same,cell vialibity normalized to Vehicle (DMSO),Jurkat T cells; dose 0.411523 μM,103.32 and 108.822 and 104.75
same,cell vialibity normalized to Vehicle (DMSO),Jurkat T cells; dose 1.23457 μM,108.031 and 101.209 and 106
same,cell vialibity normalized to Vehicle (DMSO),Jurkat T cells; dose 3.7037 μM,100.628 and 106.046 and 105.75
same,cell vialibity normalized to Vehicle (DMSO),Jurkat T cells; dose 11.1111 μM,118.035 and 121.182 and 107.162
same,cell vialibity normalized to Vehicle (DMSO),Jurkat T cells; dose 33.3333 μM,32.5707 and 32.2436 and 34.2424
same,cell vialibity normalized to Vehicle (DMSO),Jurkat T cells; dose 100 μM,20.0538 and 20.6001 and 28.3196
same,cell vialibity normalized to Vehicle (DMSO),Jurkat T cells; dose 300 μM,11.2607 and 14.1961 and 17.0248
same,viability at 0.0457247 µM,"PBMCs; Homo sapiens, PBMC, dose 0.0457247 μM, Fig. 1A, read-out: cell vialibity normalized to Vehicle (DMSO)",105%
same,viability at 0.411523 µM,"PBMCs; Homo sapiens, PBMC, dose 0.411523 μM, Fig. 1A, read-out: cell vialibity normalized to Vehicle (DMSO)",102%
same,viability at 100 µM,"PBMCs; Homo sapiens, PBMC, dose 100 μM, Fig. 1A, read-out: cell vialibity normalized to Vehicle (DMSO)",30%
"CC[C@H]1OC(=O)[C@H](C)[C@@H](O[C@H]2C[C@@](C)(OC)[C@@H](O)[C@H](C)O2)[C@H](C)[C@@H](O[C@@H]2O[C@H](C)C[C@H](N(C)C)[C@H]2O)[C@](C)(O)C[C@@H](C)CN(C)[C@H](C)[C@@H](O)[C@]1(C)O [Azithromycin, azithromycin]",viability at 1.23457 µM,PBMCs; [3],91%
same,viability at 11.1111 µM,PBMCs; [4],82%
"CC(=O)NC[C@H]1CN(c2ccc(N3CCOCC3)c(F)c2)C(=O)O1 [Linezolid, linezolid]",viability at 300 µM,PBMCs; [2],24.4%
